From US6090987A, “Metal-ligand complex catalyzed processes” (Union Carbide Chemicals & Plastics Technology Corporation, priority 1998, dated 2000)

Experiments:
[1] = Residual propylene hydroformylation activity after heat treatment, Ligand F catalyst (Table 1)
Protocol: A catalyst solution (100 milliliters) was generated in a six ounce Fisher Porter Bottle by dissolving 0.063 grams of rhodium dicarbonyl 2,4-pentanedionate, 0.8 grams of Ligand F, 20 grams of n-butyraldehyde, and 78.7 grams of tetraethylene glycol dimethyl ether, subsequently alternately evacuating and flushing with nitrogen; and finally adding 60 psi of CO:H2, and placing the bottles in a 100° C. oil bath for 1 hour.
(§1) After closing the reactor, the system was again purged with nitrogen and place in an oil bath heated to 100° C. The hydroformylation reaction in each experiment was conducted at a total gas pressure of 160 psig. The target partial pressure of hydrogen, carbon monoxide, and propylene being about 45 psia, 45 psia, and 5 psia respectively, with the remainder being nitrogen. The flows of the feed gases (carbon monoxide, hydrogen, propylene, and nitrogen) were controlled individually with mass flow meters. The feed gases were dispersed into the precursor solution via stainless steel 7-micron filters used as spargers. The unreacted portion of the feed gases stripped out the product aldehydes. Each experiment was operated for 24 hours under the above conditions. The activity is defined as the observed reaction rate divided by the predicted reaction rate. The reaction rates are expressed in terms of gram moles per liter per hour.
The same procedure as in Example 2 was followed with the exception that a slow stream of 1,2-propadiene was purged through the initially generated catalyst solution for 5 minutes. Excess was then removed by alternately evacuating and flushing with nitrogen. The resulting solution was heated at 125° C. as in Example 2, and 20 milliliters of the resulting solution was transferred to a glass reactor as in Example 2 and the activity determined.
(§2) The same procedure as in Example 3 was followed except 2 milliliters of 1,3-butadiene was added to the generated catalyst and stirred for 5 minutes. Excess 1,3-butadiene was then removed by alternate evacuation and flushing with nitrogen. The resulting solution was heated at 125° C. as in Example 2, and 20 milliliters of the resulting solution was transferred to a glass reactor as in Example 2 and the activity determined.
The same procedure as in Example 4 was followed with the exception that 50 milliliters of a catalyst solution generated as in Example 2 was treated with 0.5 milliliters of 2-methyl-1,3-butadiene (isoprene) in place of 1,3-butadiene.
A catalyst solution (20 milliliters) was generated in a Fisher Porter Bottle as in Example 2 under 60 psi CO:H2 for 1 hour, then cooled to room temperature and treated with 0.5 milliliters of 1,3-butadiene. The solution was removed from the Fisher Bottle by hypodermic syringe and transferred to a 100 milliliter stirred stainless vessel and maintained at 140° C. under 15 psi nitrogen for 14 hours. The resulting solution was then transferred to the glass reactors as in Example 2, and the residual catalyst activity measured. […]
The same procedure as in Example 8 was followed except allene was employed in place of 1,3-butadiene, and the resulting solution heated at 140° C. for 48 hours without removing excess allene.
A 20 milliliter sample of freshly generated catalyst solution (prepared as in Example 2) was charged to the glass reactors and the activity measured.
The same procedure as in Example 8 was followed except 0.4 grams of 1,3-cyclohexadiene was employed in place of 1,3-butadiene.

[2] = Decomposition of free Ligand F and deactivated complex formation at 145° C. by HPLC (FIG. 3); type: physicochemical; details: nitrogen 80 psig, no diene
Protocol: A catalyst solution (5 milliliters), 600 parts per million in rhodium and 0.8 weight percent in Ligand F generated as in Example 2 was charged to a 3 ounce Fisher Porter bottle and alternately flushed evacuated with nitrogen, then placed in a 145° C. oil bath under nitrogen (80 psig total pressure) and then monitored by HPLC at 1 and 3 hours for the Ligand F and deactivated complex concentrations. The free Ligand F concentration was 0.75, 0.57 and 0.37 weight percent at 0, 1 and 3 hours, respectively, while the deactivated complex concentration was 0.010, 0.57 and 0.89 weight percent at 0, 1 and 3 hours respectively.
The same procedure as in Example 21 was followed except the catalyst solution was treated with 1 milliliter of 1,3-butadiene and then heated at 145° C. for 3 hours (45 psig total pressure). The free Ligand F concentration measured by HPLC (high pressure liquid chromatography) was 0.75, 0.66, and 0.62 weight percent at 0, 1 and 3 hours, respectively, while the deactivated complex concentration was 0.010, 0.012, and 0.05 weight percent at 0, 1 and 3 hours respectively.

[3] = Propylene hydroformylation rate and colour of (TPP)3 Rh(CO)H catalyst after thermal treatment; details: for hydroformylation rate: control without butadiene, 100° C.; for color change of catalyst solution: control
Protocol: TPP is triphenylphosphine. 15 grams of this bright yellow solution was charged to a Fisher Porter bottle under inert gas. To this solution was added 20 psi of butadiene with stirring. The pressure dropped as the butadiene dissolved into the solution. The reactor was repressured twice with butadiene (20 psig) and then the reaction was place under a total of 45 psig with nitrogen. The solution was heated to 120° C. for 15 minutes. […] At ambient temperature, the reaction was placed under vacuum for 4 hours to remove any excess butadiene.
Since the solvent has a very high boiling point, the concentration of rhodium was assumed to have remained unchanged while under vacuum. Indeed, no change in volume was detected visually while under vacuum. 15.0 milliliters of the 275 parts per million solution was charged to a 100 milliliter autoclave.
This example is a control for Example 23. 15 grams of the catalyst solution prepared in Example 23 was charged to a Fisher Porter bottle under inert gas. 45 psig of nitrogen was added to the reaction vessel, then the reaction was heated to 120° C. for 15 minutes. […] 15.0 milliliters of the 275 parts per million solution was charged to a 100 milliliter autoclave.
A catalyst solution was prepared by adding 113 milligrams of (TPP)3 Rh(CO)H to 40.4 grams Filmer IBT® available from Union Carbide Corporation, Danbury, Conn., resulting in a rhodium concentration of 312 parts per million. At this point, the rhodium complex was a suspended in the solvent. Approximately 20 grams of this solution of (TPP)3 Rh(CO)H in tetraglyme was charged to a Fisher Porter bottle under inert gas. To this solution was added 30 psi of butadiene with stirring. The pressure dropped to 20 psig as the butadiene dissolved into the solution. The reactor was repressured twice with butadiene (30 psig) and then the pressure was adjusted to 60 psig with nitrogen. The solution was placed into 140° C. oil bath, which caused the reaction to become homogeneous within a minute. The reaction was maintained at 140° C. for 50 minutes. […] The reaction vessel was removed from the oil bath and the butadiene was vented from the reactor while the reaction was hot. After gas evolution ceased, the reaction vessel was placed carefully placed under dynamic vacuum until gas evolution had ceased for 10 minutes. The reaction was then placed under a slight positive pressure of nitrogen. […] 15.0 milliliters of the 284 parts per million solution was charged to a 100 milliliter autoclave.
This example serves as a control for Example 25. Approximately 20 grams of the solution prepared in Example 25 was charged to a Fisher Porter bottle under inert gas. 60 psig of nitrogen was added to the reaction vessel, then the reaction was heated to 140° C. for approximately 110 minutes. […] This solution was place into and out of the oil bath at the same time as the solution in Example 25. After thermal treatment, 10 weight percent of triphenylphosphine was added to the reaction mixture. […] 15 milliliters of the 284 parts per million solution was charged to a 100 milliliter autoclave.

[4] = Residual propylene hydroformylation activity after heat treatment, Ligand D catalyst (Table 1); details: fresh catalyst control, no heat treatment
Protocol: as §1, with “About 20 milliliters of the solution was charged to a glass reactor via a syringe after purging the reactor with nitrogen (see Examples 14-20 below). After” for “After”
as §2
The same procedure as in Example 4 was followed except Ligand D (as identified herein) was employed in place of Ligand F. The results are given in Table 1.
The same procedure as in Example 10 was followed except the fresh catalyst solution contained Ligand D in place of Ligand F. The results are given in Table 1.

[5] = 125° C./50 hours, no excess diene
[6] = 125° C./24 hours, no excess diene
[7] = 140° C./48 hours, excess diene present
[8] = 140° C./24 hours, excess diene present

Which “% Activity” value [1, 5] does the source give for `C=CC(=C)C` [Isoprene, 2-methyl-1,3-butadiene] here?
Its value is 73.8%.

What about the “Final Rate” value [1, 5] of the same molecule?
Its value is 1.55 gram moles per liter per hour.

Which “% Activity” value [1, 6] does the source give for `C=C=C` [Allene, 1,2-propadiene] here?
The value was 101%.

And the “Final Rate” value [1, 6]?
Its value is 2.22 gram moles per liter per hour.

What about the “% Activity” value [1, 7] of the same molecule?
Its value is 47.2%.

What about the “Final Rate” value [1, 7] of the same molecule?
The value was 1.03 gram moles per liter per hour.

Which deactivated complex concentration ([2]; 0 hours) does the source give for `CC(C)(C)c1cc(-c2cc(C(C)(C)C)cc(C(C)(C)C)c2Op2oc3ccccc3c3ccccc3o2)c(Op2oc3ccccc3c3ccccc3o2)c(C(C)(C)C)c1` [Ligand F] here?
Its deactivated complex concentration is 0.010 weight percent.

What about the “free Ligand F concentration” value ([2]; 0 hours) of the same molecule?
The value was 0.75 weight percent.

And the deactivated complex concentration ([2]; 1 hour)?
Its deactivated complex concentration is 0.57 weight percent.

What about the “free Ligand F concentration” value ([2]; 1 hour) of the same molecule?
Its value is 0.57 weight percent.

And the deactivated complex concentration ([2]; 3 hours)?
The deactivated complex concentration was 0.89 weight percent.

And the “free Ligand F concentration” value ([2]; 3 hours)?
Its value is 0.37 weight percent.

What about the “% Activity” value [1, 6] of the same molecule?
Its value is 10.0%.

What about the “Final Rate” value [1, 6] of the same molecule?
The value was 0.22 gram moles per liter per hour.

What about the “Final Rate” value ([1]; fresh catalyst control, no heat treatment) of the same molecule?
The value was 2.18 gram moles per liter per hour.

With `C1=CCCC=C1` [1,3-cyclohexadiene] as the molecule, how does the “% Activity” value [1, 8] read?
The value was 4.13%.

And the “Final Rate” value [1, 8]?
Its value is 0.09 gram moles per liter per hour.

Which hydroformylation rate ([3]; after 120° C. for 15 minutes under nitrogen, 275 ppm Rh, 115 psig) does the source give for `c1ccc(P(c2ccccc2)c2ccccc2)cc1` [triphenylphosphine, reference compound] here?
Its hydroformylation rate is 0.8 gmol/L-h.

And the hydroformylation rate ([3]; after 140° C. for approximately 110 minutes, 284 ppm Rh, 95 psig)?
Its hydroformylation rate is 0.3 gmol/L-h.

What about the “color change of catalyst solution” value ([3]; 120° C. for 15 minutes under nitrogen) of the same molecule?
Its value is “turn from bright yellow to dark brown”.

What about the “color change of catalyst solution” value ([3]; 140° C. for approximately 110 minutes under nitrogen) of the same molecule?
The value was “turn from bright yellow to dark brown”.

With `COc1cc(-c2cc(OC)cc(C(C)(C)C)c2Op2oc3ccccc3c3ccccc3o2)c(Op2oc3ccccc3c3ccccc3o2)c(C(C)(C)C)c1` [Ligand D, 6,6'-[[3,3'-bis(1,1-dimethylethyl)-5,5'-dimethoxy-[1,1' -biphenyl]-2,2'-diyl]bis(oxy)]bis-dibenzo[d,f][1,3,2]dioxaphosphepin] as the molecule, how does the “Final Rate” value [4] read?
The value was 1.16 gram moles per liter per hour.
